According to patent publication US20250186436A1 (4E Therapeutics, Inc., priority 2021, published 2025):
Where “and” joins values, the source holds several entries; their conditions need not be identical. Equal entries are not always repeated. Where two headings read alike, the source gives them in different places.

Assays:
[1] = PK study in male Sprague-Dawley rats dosed once per day for five days, PO 10 mg/kg, 0.5% HPMC (Example 7); assay type: in vivo; conditions: male, Sprague-Dawley, rat, in vivo, po, 10 mg/kg, 0.5% HPMC suspension
Experimental: Example 7. PK study of 4ET-03-053 in male Sprague-Dawley rats dosed once per day for five days (P0; 10 mg/kg; 0.5%0HPMC aqueous suspension)
Table 21 provides plasma and brain concentrations at 24 hr after the last dose of five daily P0 doses of 4ET-03-053.

[2] = Plasma and brain concentrations, brain:plasma ratio 24 hr after last of five daily 1 mg/kg PO doses (Example 6); assay type: in vivo, rats; conditions: for concentration at 24 h / Kp at 24 h: rat; for concentration at 24 h: oral, 1 mg/kg
Text: Table 18 provides plasma and brain concentrations of 4ET-03-0053 at 24 hr after the last dose of five daily P0 doses.

[3] = Plasma and brain concentrations, brain to plasma ratio 24 hr after last of five 25 mg/kg PO doses (Example 8); assay type: in vivo; conditions: rats, 24 hr after the last of five 25 mg/kg PO doses; for concentration at 24 hr / concentration at 24 h: Sprague-Dawley, rat, oral, 25 mg/kg; for concentration at 24 h: male
Text: Table 24 provides plasma and brain concentrations at 24 hr after the last dose of five daily PO doses of 4ET-03-053.

[4] = system: eIF4E phosphorylation at Serine 209 in HEK 293 cells; assay: eIF4E phosphorylation in HEK 293 cells (phospho-specific antibody, fluorescent plate reader); assay type: cell-based; conditions: Homo sapiens, HEK293; eIF4E phosphorylation at Serine 209, 2 hours exposure; read-out: HEK 293 cell;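 further: Well-level p-eIF4E immunofluorescence normalized to DAPI signal, expressed as percent eIF4E phosphorylation, with IC50 derived from concentration-response curves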
[5] = male Sprague-Dawley rats, single PO 10 mg/kg dose, individual animals
[6] = male Sprague-Dawley rats, single PO 10 mg/kg dose, mean (n = 3)

SMILES: Cc1cc(Nc2cc(N)ncn2)c(=O)n2c1C(=O)NC21CCC2(CC2)CC1 [4ET-03-053, 6″-((6-Aminopyrimidin-4-yl)amino)-8″-methyl-2″H-dispiro[cyclopropane-1,1′-cyclohexane-4′,3″-imidazo[1,5-a]pyridine]-1″,5″-dione]
- AUC(0-inf) ([1]; Sprague-Dawley rats, day five of daily PO 10 mg/kg, mean (n = 3), read-out: AUCinf): 308 µg·h/mL
- concentration at 24 h ([1]; Sprague-Dawley rats, day five of daily PO 10 mg/kg, mean (n = 3), read-out: Clast): 2670 ng/mL
- Cmax ([1]; Sprague-Dawley rats, day five of daily PO 10 mg/kg, mean (n = 3), read-out: Cmax): 22800 ng/mL
- half-life ([1]; Sprague-Dawley rats, day five of daily PO 10 mg/kg, mean (n = 3), read-out: t1/2 (converted)): 6.82 h
- bioavailability ([1]; Sprague-Dawley rats, following five daily PO doses of 10 mg/kg): 59.9%
- concentration at 24 h ([1]; Sprague-Dawley rats, following five daily PO doses of 10 mg/kg, at 24 hr, read-out: last measurable concentration): 2670 ng/mL
- Cmax ([1]; Sprague-Dawley rats, following five daily PO doses of 10 mg/kg, read-out: peak plasma concentration (Cmax)): 22800 ng/mL
- half-life ([1]; Sprague-Dawley rats, following five daily PO doses of 10 mg/kg, read-out: terminal half-life (converted)): 6.82 h
- AUC(0-inf) ([1]; Sprague-Dawley rats, following five daily PO doses of 10 mg/kg, read-out: total systemic exposure (AUCinf)): 308 µg·h/mL
- AUC(0-t) [1, 5]: 247 µg·h/mL
- MRT inf [1, 5]: 7.18 h
- Tmax [1, 5]: 2 h
- AUC(0-inf) ([1]; male Sprague-Dawley rats, single PO 10 mg/kg dose, individual animals, read-out: AUCinf): 255 µg·h/mL
- concentration at 24 h ([1]; male Sprague-Dawley rats, single PO 10 mg/kg dose, individual animals, read-out: Clast): 1330 ng/mL
- Cmax ([1]; male Sprague-Dawley rats, single PO 10 mg/kg dose, individual animals, read-out: Cmax): 25100 ng/mL
- half-life ([1]; male Sprague-Dawley rats, single PO 10 mg/kg dose, individual animals, read-out: t1/2 (converted)): 5.38 h
- AUC(0-t) [1, 6]: 262 µg·h/mL
- Tmax [1, 6]: 1.67 h
- AUC(0-inf) ([1]; male Sprague-Dawley rats, single PO 10 mg/kg dose, mean (n = 3), read-out: AUCinf): 272 µg·h/mL
- concentration at 24 h ([1]; male Sprague-Dawley rats, single PO 10 mg/kg dose, mean (n = 3), read-out: Clast): 1340 ng/mL
- Cmax ([1]; male Sprague-Dawley rats, single PO 10 mg/kg dose, mean (n = 3), read-out: Cmax): 22300 ng/mL
- half-life ([1]; male Sprague-Dawley rats, single PO 10 mg/kg dose, mean (n = 3), read-out: t1/2 (converted)): 5.11 h
- bioavailability ([1]; male Sprague-Dawley rats, single PO 10 mg/kg): 52.8%
- concentration at 24 h ([1]; male Sprague-Dawley rats, single PO 10 mg/kg, at 24 hr, read-out: last measurable concentration): 1340 ng/mL
- Cmax ([1]; male Sprague-Dawley rats, single PO 10 mg/kg, read-out: peak plasma concentration (Cmax)): 22300 ng/mL
- half-life ([1]; male Sprague-Dawley rats, single PO 10 mg/kg, read-out: terminal half-life (t1/2) (converted)): 5.11 h
- concentration at 24 h ([2]; male, Sprague-Dawley, brain homogenate, rats, brain homogenate, 24 hr after the last 1 mg/kg PO dose on day 5, individual animals (n = 3), read-out: Tissue Homogenate Conc.): 7.22 ng/mL
- concentration at 24 h ([2]; male, Sprague-Dawley, brain homogenate, rats, brain homogenate, 24 hr after the last 1 mg/kg PO dose on day 5, mean, read-out: Tissue Homogenate Conc., Mean): 6.02 ng/mL
- concentration at 24 h ([2]; male, Sprague-Dawley, brain, rats, brain, 24 hr after the last 1 mg/kg PO dose on day 5, read-out: Mean Tissue): 24.1 ng/g
- concentration at 24 h ([2]; male, Sprague-Dawley, plasma, rats, plasma, 24 hr after the last 1 mg/kg PO dose on day 5, individual animals (n = 3), read-out: Plasma Conc.): 318 ng/mL
- concentration at 24 h ([2]; male, Sprague-Dawley, plasma, rats, plasma, 24 hr after the last 1 mg/kg PO dose on day 5, mean, read-out: Plasma Conc., Mean): 278 ng/mL
- Kp at 24 h ([2]; male, Sprague-Dawley, rats, brain to plasma, 24 hr after the last 1 mg/kg PO dose on day 5, read-out: Mean Tissue/Plasma Conc. Ratio): 0.086
- Kp at 24 h ([2]; brain, Sprague-Dawley rats, 24 hr after the last dose of five daily PO doses of 1 mg/kg, read-out: brain:plasma ratio): 0.086
- Tissue Homogenate Conc. ([2]; rats, brain homogenate, 24 hr after the last 1 mg/kg PO dose on day 5, individual animals (n = 3)): 5.79 ng/mL and 5.04 ng/mL
- Plasma Conc. ([2]; rats, plasma, 24 hr after the last 1 mg/kg PO dose on day 5, individual animals (n = 3)): 291 ng/mL and 226 ng/mL
- concentration at 24 hr ([3]; brain homogenate, brain homogenate, mean, read-out: Tissue Homogenate Conc., Mean): 122 ng/mL
- concentration at 24 hr ([3]; brain, brain, read-out: Mean Tissue): 489 ng/g
- concentration at 24 h ([3]; brain homogenate, brain homogenate, individual animals (n = 3), read-out: Tissue Homogenate Conc.): 104 ng/mL
- concentration at 24 h ([3]; plasma, plasma, individual animals (n = 3), read-out: Plasma Conc.): 5340 ng/mL
- concentration at 24 h ([3]; plasma, plasma, mean, read-out: Plasma Conc., Mean): 5890 ng/mL
- Tissue Homogenate Conc. ([3]; brain homogenate, individual animals (n = 3)): 127 ng/mL and 136 ng/mL
- Plasma Conc. ([3]; plasma, individual animals (n = 3)): 6120 ng/mL and 6220 ng/mL
- IC50 [4]: 10.1 nM
